Experimental data from ChEMBL document CHEMBL3856260, “A synergistic antitumor effect of polyphyllin I and formosanin C on hepatocarcinoma cells” (Bioorg Med Chem Lett, 2016).
Activity calls are given as the source filed them. The calls are words filed in the database; no cut-off is given here.

Key:
[1] = Cytotoxicity against human Bel7402 cells assessed as combination index at ED90 using 1:1 compound to formosanin C incubated for 24 hrs by MTT assay; format: functional, Bel-7402
HepG2 [2] = assay: Induction of cytochrome c release in human HepG2 cells by Western blot analysis in presence of FC; format: functional, cell-based
HepG2 [3] = assay: Increase in p21 mRNA level in human HepG2 cells at 1 uM incubated for 24 hrs by RT-PCR analysis in presence of formosanin C relative to polyphyllin I alone treatment; format: functional, cell-based
[4] = Cell cycle arrest in human HepG2 cells assessed as accumulation at G2 phase at 1 uM after 24 hrs by propidium iodide staining-based flow cytometry(reference value: 2.04%); format: functional
HepG2 [5] = assay: Induction mitochondrial membrane potential changes in human HepG2 cells at 1 uM after 24 hrs by rhodamine 123 staining-based flow cytometry in presence of formosanin C (reference value: 23.8+/-2.3%); format: functional
HepG2 [6] = assay: Induction of apoptosis in human HepG2 cells at 1 uM after 24 hrs by propidium iodide staining-based flow cytometry in presence of formosanin C (reference value: 3.01%); format: functional
[7] = Cytotoxicity against human HepG2 cells after 24 hrs by MTT assay; format: functional, cell-based; conditions: HepG2, 24 h
HepG2 [8] = assay: Induction of nuclear fragmentation in human HepG2 cells at 1 uM after 24 hrs by Hoechst 33258 staining-based fluorescence microscopic analysis; format: functional, cell-based
HepG2 [9] = assay: Antimigratory activity in human HepG2 cells at 1 uM after 24 hrs by wound healing assay in presence of FC; format: functional, cell-based
[10] = Cytotoxicity against human Bel7402 cells after 24 hrs by MTT assay; format: functional, cell-based; conditions: Bel-7402, 24 h
[11] = Induction of apoptosis in human HepG2 cells assessed as upregulation of p53 level at 1 uM incubated for 24 hrs by Western blot analysis in presence of formosanin C; format: functional, cell-based
[12] = Cell cycle arrest in human HepG2 cells assessed as accumulation at S phase at 1 uM after 24 hrs by propidium iodide staining-based flow cytometry in presence of formosanin C (reference value: 42.33%); format: functional
[13] = Cytotoxicity against human Bel7402 cells assessed as combination index at ED50 using 1:1 compound to formosanin C incubated for 24 hrs by MTT assay; format: functional, Bel-7402
[14] = Induction of apoptosis in human HepG2 cells assessed as upregulation of Bax level at 1 uM incubated for 24 hrs by Western blot analysis in presence of formosanin C; format: functional, cell-based
HepG2 [15] = assay: Induction of apoptosis in human HepG2 cells assessed as downregulation of Bcl2 mRNA level at 1 uM incubated for 24 hrs by RT-PCR analysis in presence of formosanin C; format: functional, cell-based
[16] = Cytotoxicity against human Bel7402 cells assessed as combination index at ED75 using 1:1 compound to formosanin C incubated for 24 hrs by MTT assay; format: functional, Bel-7402
[17] = Cytotoxicity against human HepG2 cells assessed as combination index at ED90 using 1:1 compound to formosanin C incubated for 24 hrs by MTT assay; format: functional
HepG2 [18] = assay: Induction of nuclear fragmentation in human HepG2 cells at 0.5 uM after 24 hrs by Hoechst 33258 staining-based fluorescence microscopic analysis in presence of formosanin C; format: functional, cell-based
[19] = Cell cycle arrest in human HepG2 cells assessed as accumulation at G1 phase at 1 uM after 24 hrs by propidium iodide staining-based flow cytometry in presence of formosanin C (reference value: 55.62%); format: functional
HepG2 [20] = assay: Decrease in cyclin E level in human HepG2 cells at 1 uM incubated for 24 hrs Western blot analysis in presence of FC; format: functional, cell-based
HepG2 [21] = assay: Induction of cytochrome c release in human HepG2 cells by Western blot analysis; format: functional, cell-based
HepG2 [22] = assay: Change in PCNA mRNA level in human HepG2 cells at 1 uM incubated for 24 hrs by RT-PCR analysis in presence of formosanin C relative to formosanin C treatment; format: functional, cell-based
HepG2 [23] = assay: Induction of apoptosis in human HepG2 cells assessed as downregulation of NF-kappaB […] level at 1 uM incubated for 24 hrs by RT-PCR analysis in presence of formosanin C; format: functional, cell-based
HepG2 [24] = assay: Change in PCNA mRNA level in human HepG2 cells at 1 uM incubated for 24 hrs by RT-PCR analysis in presence of formosanin C relative to polyphyllin I alone treatment; format: functional, cell-based
HepG2 [25] = assay: Decrease in CDK2 level in human HepG2 cells at 1 uM incubated for 24 hrs by Western blot analysis in presence of formosanin C relative to relative to polyphyllin I alone treatment; format: functional, cell-based
[26] = Cytotoxicity against human HepG2 cells assessed as combination index at ED50 using 1:1 compound to formosanin C incubated for 24 hrs by MTT assay; format: functional
[27] = Induction of apoptosis in human HepG2 cells assessed as upregulation of caspase3 mRNA level at 1 uM incubated for 24 hrs by RT-PCR analysis in presence of formosanin C; format: functional, cell-based
HepG2 [28] = assay: Increase in p21 level in human HepG2 cells at 1 uM incubated for 24 hrs by Western blot analysis in presence of FC; format: functional, cell-based
HepG2 [29] = assay: Induction of Bax translocation from cytosol to mitochondria in human HepG2 cells by Western blot analysis in presence of FC; format: functional, cell-based
HepG2 [30] = assay: Induction of chromatin compaction in human HepG2 cells at 1 uM after 24 hrs by Hoechst 33258 staining-based fluorescence microscopic analysis; format: functional, cell-based
HepG2 [31] = assay: Decrease in CDK2 level in human HepG2 cells at 1 uM incubated for 24 hrs by Western blot analysis in presence of FC; format: functional, cell-based
[32] = Induction of apoptosis in human HepG2 cells assessed as upregulation of Bax mRNA level at 1 uM incubated for 24 hrs by RT-PCR analysis in presence of formosanin C; format: functional, cell-based
[33] = Induction of apoptosis in human HepG2 cells assessed as upregulation of caspase3 level at 1 uM incubated for 24 hrs by Western blot analysis in presence of formosanin C; format: functional, cell-based
[34] = Suppression of MMP9 expression in human HepG2 cells assessed as reduction in enzyme activity at 1 uM after 24 hrs by zymographic analysis in presence of FC; format: functional, cell-based
[35] = Cytotoxicity against human HepG2 cells assessed as combination index at ED75 using 1:1 compound to formosanin C incubated for 24 hrs by MTT assay; format: functional
[36] = Suppression of MMP9 expression in human HepG2 cells at 1 uM after 24 hrs by Western blot analysis in presence of FC; format: functional, cell-based
[37] = Cell cycle arrest in human HepG2 cells assessed as accumulation at G1 phase at 1 uM after 24 hrs by propidium iodide staining-based flow cytometry(reference value: 55.62%); format: functional
HepG2 [38] = assay: Induction of apoptosis in human HepG2 cells at 1 uM after 24 hrs by propidium iodide staining-based flow cytometry(reference value: 3.01%); format: functional
HepG2 [39] = assay: Induction of Bax translocation from cytosol to mitochondria in human HepG2 cells by Western blot analysis; format: functional, cell-based
HepG2 [40] = assay: Induction mitochondrial membrane potential changes in human HepG2 cells at 1 uM after 24 hrs by rhodamine 123 staining-based flow cytometry (reference value: 23.8+/-2.3%); format: functional
HepG2 [41] = assay: Increase in cyclin E mRNA level in human HepG2 cells at 1 uM incubated for 24 hrs by RT-PCR analysis in presence of formosanin C relative to polyphyllin I alone treatment; format: functional, cell-based
[42] = Cytotoxicity against human Bel7402 cells assessed as combination index at ED30 using 1:1 compound to formosanin C incubated for 24 hrs by MTT assay; format: functional, Bel-7402
[43] = Cell cycle arrest in human HepG2 cells assessed as accumulation at G2 phase at 1 uM after 24 hrs by propidium iodide staining-based flow cytometry in presence of formosanin C (reference value: 2.04%); format: functional
[44] = Cytotoxicity against human HepG2 cells assessed as combination index at ED30 using 1:1 compound to formosanin C incubated for 24 hrs by MTT assay; format: functional
HepG2 [45] = assay: Induction of chromatin compaction in human HepG2 cells at 0.5 uM after 24 hrs by Hoechst 33258 staining-based fluorescence microscopic analysis in presence of formosanin C; format: functional, cell-based
[46] = Induction of apoptosis in human HepG2 cells assessed as upregulation of p53 mRNA level at 1 uM incubated for 24 hrs by RT-PCR analysis in presence of formosanin C; format: functional, cell-based
[47] = Cell cycle arrest in human HepG2 cells assessed as accumulation at S phase at 1 uM after 24 hrs by propidium iodide staining-based flow cytometry(reference value: 42.33%); format: functional

## C[C@@H]1CC[C@@]2(OC1)O[C@H]1C[C@H]3[C@@H]4CC=C5C[C@@H](O[C@@H]6O[C@H](CO)[C@@H](O[C@@H]7O[C@@H](CO)[C@H](O)[C@H]7O)[C@H](O)[C@H]6O[C@@H]6O[C@@H](C)[C@H](O)[C@@H](O)[C@H]6O)CC[C@]5(C)[C@H]4CC[C@]3(C)[C@H]1[C@@H]2C
[1]
  CI: 0.46
HepG2 [2]
  Activity: Active
HepG2 [3]
  Activity: Active
[4]
  Activity: 2.15%
HepG2 [5]
  Activity: 40.6%
HepG2 [6]
  Activity: 7.52%
[7]
  IC50: 4.01 µM
HepG2 [8]
  Activity: Active
HepG2 [9]
  Activity: Active
[10]
  IC50: 4.74 µM
[11]
  Activity: Active
[12]
  Activity: 28.7%
[13]
  CI: 0.58
[14]
  Activity: Active
HepG2 [15]
  Activity: Active
[16]
  CI: 0.52
[17]
  CI: 0.54
HepG2 [18]
  Activity: Active
[19]
  Activity: 68.7%
HepG2 [20]
  Activity: Active
HepG2 [21]
  Activity: Active
HepG2 [22]
  Activity: Active
HepG2 [23]
  Activity: Active
HepG2 [24]
  Activity: Active
HepG2 [25]
  Activity: Active
[26]
  CI: 0.58
[27]
  Activity: Active
HepG2 [28]
  Activity: Active
HepG2 [29]
  Activity: Active
HepG2 [30]
  Activity: Active
HepG2 [31]
  Activity: Active
[32]
  Activity: Active
[33]
  Activity: Active
[34]
  Activity: Active
[35]
  CI: 0.56
[36]
  Activity: Active
[37]
  Activity: 59.5%
HepG2 [38]
  Activity: 5.28%
HepG2 [39]
  Activity: Active
HepG2 [40]
  Activity: 27.9%
HepG2 [41]
  Activity: Active
[42]
  CI: 0.67
[43]
  Activity: 2.63%
[44]
  CI: 0.62
HepG2 [45]
  Activity: Active
[46]
  Activity: Active
[47]
  Activity: 38.4%
